Reference: patent US4505932A, “Method of producing α2 -adrenergic receptor agonist activity” (Abbott Laboratories, priority 1984, dated 1985)
Counter-ions that a name gives are not always drawn.

What was measured:
α2 -adrenergic receptors = format: binding, rat; conditions: for Ki: rat brain cortex, [3H] rauwolscine, read-out: KIα2 (dissociation constant); for KIα1/KIα2: selectivity ratio, rat liver α1 vs rat brain cortex α2
α1 -adrenergic receptors = target: T1, α1 -adrenergic receptors (Rattus norvegicus, UniProt P15823); assay: radioligand binding, [3H] prazosin displacement in rat liver; conditions: read-out: KIα1 (dissociation constant)
T1 construct: from tissue; host or cells: rat liver
T1 sequence (P15823 1-515): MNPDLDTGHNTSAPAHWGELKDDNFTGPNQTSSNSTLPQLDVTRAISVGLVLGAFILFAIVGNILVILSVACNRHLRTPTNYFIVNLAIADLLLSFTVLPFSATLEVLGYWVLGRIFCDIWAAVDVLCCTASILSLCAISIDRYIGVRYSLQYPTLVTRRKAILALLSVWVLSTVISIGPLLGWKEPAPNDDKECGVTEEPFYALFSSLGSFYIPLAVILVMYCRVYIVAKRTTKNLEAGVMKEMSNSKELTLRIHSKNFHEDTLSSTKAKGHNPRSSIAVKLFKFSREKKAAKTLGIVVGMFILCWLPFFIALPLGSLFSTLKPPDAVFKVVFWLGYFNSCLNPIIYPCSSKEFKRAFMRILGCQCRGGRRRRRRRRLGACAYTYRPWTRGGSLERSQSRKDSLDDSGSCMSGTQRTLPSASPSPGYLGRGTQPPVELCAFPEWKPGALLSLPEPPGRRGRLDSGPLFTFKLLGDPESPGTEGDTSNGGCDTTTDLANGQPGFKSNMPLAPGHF

α-adrenergic receptor = assay: isolated rabbit aorta contraction, α-adrenergic receptor agonist activity; format: cell-based; conditions: isolated rabbit aorta strip
Description: Female rabbits, weighing 2 to 5 kg., are sacrificed by cervical dislocation. The thoracic cavity is immediately opened and the descending aorta is removed and placed in a petrie dish containing an aqueous buffer solution (Krebs buffer) of 119 mM NaCl, 25 mM […], 4.7 mM KCl, 1.5 mM MgSO4, 1.2 mM KH2 PO4, 2.5 mM CaCl2, 11 mM glucose, 0.03 mM EDTA and 0.005 mM sodium ascorbate, adjusted to a pH of 7.4. The buffer solution is continuously aerated with a mixture of 95% O2 and 5% CO2 gases. The aorta is placed on cylindrical sticks and cleaned of excess fat and connective tissue, then cut into 2 tissue segments approximately 20 mm in length. Each segment of aorta is then spiraled in strips 3.5 mm wide by turning the stick as a scapel is applied, while leaving a section of 2-3 mm at each end of the aorta section intact. The spiraled tissue is mounted in an aerated (as above) tissue bath of 10 ml. of Kreb's buffer and is attached to a Grass force transducer with an initial applied tension of 2 grams. The tissue is allowed to equilibrate in the tissue bath at a temperature of 37°±0.5° C. until the tension on the force transducer stabilizes at 2 grams.
The tissue is washed with Krebs buffer until it relaxes to baseline tension.

[1] = system: spontaneously hypertensive rat; assay: arterial blood pressure and heart rate in the spontaneously hypertensive rat (tail cuff); format: in vivo
Description: Two groups of Okamoto rats, which develop hypertension spontaneously when reaching young adulthood, are deprived of food for a period of 16 hours and are placed in semirestraining wire mesh cylinders maintained at a constant temperature of 36° C. An occluding cuff, operatively connected to a programmed sphygmomanometer, is placed over the tail of each rat of the group and retained near the tail base. […] A photocell is placed distal to the cuff to detect pulses resulting from the forward motion of blood flow with each heartbeat of the rat. As the pressure in the cuff increases, measurable pulses disappear at the point where the cuff pressure equals the arterial blood pressure. Measurable pluses reappear during deflation at approximately the same pressure, and arterial blood pressure is thereby established by cuff pressure at the point of pulse appearance. The heart rate is determined from the arterial pulse wave. Doses of 30 or 100 mg./kg. of the preferred compound of Example 6 were administered orally to each rat of the test groups and five interference-free signals were recorded on a Model 7 Grass polygraph for each rat at various measurement periods following administration.

## CNC[C@H](O)c1ccc(O)c(O)c1 [Epinephrine, epinephrine, reference compound]
α2 -adrenergic receptors
  Ki: 53 nM

## CNCC1CCc2c1ccc(O)c2O (stereo not drawn) [Example 10, 1-N-Methylaminomethyl-4,5-dihydroxy indane hydrobromide]
α2 -adrenergic receptors
  Ki: 6 nM
  KIα1/KIα2: 282
α1 -adrenergic receptors
  Ki: 1690 nM

## Clc1cccc(Cl)c1N=C1NCCN1 [Clonidine, clonidine, reference compound]
α2 -adrenergic receptors
  Ki: 34 nM

## NCC1CCc2c1ccc(O)c2O (stereo not drawn) [B]
α2 -adrenergic receptors
  Ki: 15 nM
  KIα1/KIα2: 575
α1 -adrenergic receptors
  Ki: 8620 nM

## CN(C)CC1CCc2c1ccc(O)c2O (stereo not drawn) [Example 6, 1-N,N-Dimethylaminomethyl-4,5-dihydroxy indane hydrobromide]
α2 -adrenergic receptors
  Ki: 25 nM
  KIα1/KIα2: 276
α1 -adrenergic receptors
  Ki: 6900 nM
α-adrenergic receptor
  agonist character (intrinsic activity vs norepinephrine; >75% = full agonist): full agonist
α-adrenergic receptor; contraction, read-out: ED50 (concentration producing half maximum response) in aorta strip
  EC50: 1600 nM
[1]; 30 or 100 mg./kg. orally, Okamoto rats
  arterial blood pressure: decrease the arterial blood pressure
[1]; spontaneously hypertensive rat, oral
  heart rate: decrease
